Laboratory results: patent US11723920B2, “Method for treating cancer with a nanoformulation” (Imam Abdulrahman Bin Faisal University, priority 2019, dated 2023)

System: human mammary adenocarcinoma cell line, MCF-7
Experiment: Cell viability MTT assay on MCF-7 cells
Type: cell-based
Conditions: MCF-7, 48 h
Protocol: Cells were maintained in DMEM (Dulbecco's Modified Eagle Medium) (Gibco, life technologies) supplemented with 10% heat inactivated fetal bovine serum (HI-FBS) (Gibco, life technology), 1% Penicillin Streptomycin (100×— Gibco, life technology), and 1% MEM NEAA (MEM non-essential amino acids) (100×— Gibco, life technology). Cells were kept in a humidified incubator at 37° C. with 5% CO2. For the experimental setup, MCF-7 cells were seeded on a 96-well plate at a density of 20,000 cells/well. On the next day, cells were shifted to the starve media (0.5% HI-FBS containing media) for 24 h before treatment.
For groups B, C, E, and F, treatment concentrations were as follows: 0.025, 0.05, 0.1, and 0.5 mg/mL. […] Therefore, treatment concentrations for group A were as follows: 0.0084, 0.0168, 0.0336, and 0.168 mg/mL. Treatment concentrations used in this experiment for group D were as follows: 0.001125, 0.00225, 0.0045, 0.0225 mg/mL.
The viability of cells was tested using 3-(4,5-dimethylthiazol-2-yl)-2,5-diphenyltetrazolium bromide (MTT) assay. It is based on the ability to reduce MTT relative to formazan crystals. […] The change in color intensity was measured at 570 nm wavelength using SYNERGY-neo2 BioTek ELISA reader. […] The reading of each triplicate was averaged and subtracted from the averaged MTT background control reading. […]

## N.N.[Cl][Pt][Cl] [cisplatin]
  effect on cell viability (in words): significantly reduced cell viability
